Laboratory results from US10323027B2, “2,3-dihydro-4H-1,3-benzoxazin-4-one derivatives as modulators of cholinergic muscarinic M1 receptor” (Takeda Pharmaceutical Company Limited, priority 2015, dated 2019).
Counter-ions that a name gives are not always drawn.

Biological target: T1, human M1 receptor (hCHRM1) (Homo sapiens, UniProt P11229)
T1 construct: expressed in transfected cells
T1 sequence (P11229 1-460): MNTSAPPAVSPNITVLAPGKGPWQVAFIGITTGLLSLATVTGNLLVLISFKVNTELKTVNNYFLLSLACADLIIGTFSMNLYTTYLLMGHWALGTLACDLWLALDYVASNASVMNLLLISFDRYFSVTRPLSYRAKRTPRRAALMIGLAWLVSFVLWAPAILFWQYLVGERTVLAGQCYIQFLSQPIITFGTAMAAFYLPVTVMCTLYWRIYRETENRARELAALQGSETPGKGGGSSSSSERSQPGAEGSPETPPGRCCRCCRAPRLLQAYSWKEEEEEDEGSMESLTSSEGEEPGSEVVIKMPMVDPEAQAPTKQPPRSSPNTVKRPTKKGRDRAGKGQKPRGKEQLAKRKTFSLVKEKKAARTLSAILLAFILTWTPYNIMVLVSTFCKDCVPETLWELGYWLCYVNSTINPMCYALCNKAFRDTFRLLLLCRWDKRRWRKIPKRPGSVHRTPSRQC
Test: Measurement of M1 receptor positive allosteric modulator (M1PAM) activity, Ca2+ fluorescence by FLIPRtetra (Experimental Example 1)
Type: cell-based
Details: for activity (%) at 10 μM: 10 μM test compound, 100% = acetylcholine 1 μM, 0% = DMSO; for EC50: inflection point of concentration-dependent curve, in presence of acetylcholine at EC20 (0.8-1.0 nM), CHO-K1 cells expressing hCHRM1, read-out: IP value
Method in brief: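 CHO-K1 cells stably expressing hCHRM1, loaded with Fluo-4 AM (probenecid), received compound with acetylcholine at EC20 (final 0.8-1.0 nM); Ca2+ fluorescence read 1 min by FLIPRtetra. Activity scaled 0% (DMSO) to 100% (1 μM acetylcholine); IP from inflection point of concentration curve.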

Row | activity (%) at 10 μM [%] | EC50 [nM] | activity (%) at 10 μM (monohydrochloride) [%] | Compound
1 | 91 | – | – | Cc1cc2c(cc1Cc1ccc(Cl)nc1)C(=O)N([C@H]1CCCC[C@@H]1O)CO2 (relative stereo) [Example 62, 6-((6-chloropyridin-3-yl)methyl)-3-(trans-2-hydroxycyclohexyl)-7-methyl-2,3-dihydro-4H-1,3-benzoxazin-4-one]
2 | 93 | 90 | – | Cc1cc2c(cc1Cc1ccc(-c3cn(C)nc3C)nc1)C(=O)N(CC1CCCO1)CO2 (stereo not shown) [Example 82, 6-((6-(1,3-dimethyl-1H-pyrazol-4-yl)pyridin-3-yl)methyl)-7-methyl-3-(tetrahydrofuran-2-ylmethyl)-2,3-dihydro-4H-1,3-benzoxazin-4-one]
3 | 106 | 2.5 | – | Cc1ccc(Cc2cc3c(c(Cl)c2C)OCN([C@H]2CCCC[C@@H]2O)C3=O)cn1 [Example 2, 8-chloro-3-((1S,2S)-2-hydroxycyclohexyl)-7-methyl-6-((6-methylpyridin-3-yl)methyl)-2,3-dihydro-4H-1,3-benzoxazin-4-one]
4 | 93 | 96 | – | Cc1ccc(Cc2cc3c(c(Cl)c2C)OCN(CC2CCCO2)C3=O)cn1 (stereo not shown) [Example 84, 8-chloro-7-methyl-6-((6-methylpyridin-3-yl)methyl)-3-(tetrahydrofuran-2-ylmethyl)-2,3-dihydro-4H-1,3-benzoxazin-4-one]
5 | 98 | 14 | – | COc1c(Cc2ccc(-n3cccn3)nc2)cc2c(c1F)OCN([C@H]1CCC[C@@H]1O)C2=O (single isomer, unassigned) [Example 55, 8-fluoro-3-(trans-2-hydroxycyclopentyl)-7-methoxy-6-((6-(1H-pyrazol-1-yl)pyridin-3-yl)methyl)-2,3-dihydro-4H-1,3-benzoxazin-4-one (optical isomer)]
6 | 109 | 9.1 | – | Cc1c(Cc2ccc(Cl)nc2)cc2c(c1C)OCN([C@H]1COCC[C@@H]1O)C2=O [Example 10, 1,5-anhydro-2-(6-((6-chloropyridin-3-yl)methyl)-7,8-dimethyl-4-oxo-2H-1,3-benzoxazin-3(4H)-yl)-2,4-dideoxy-L-threo-pentitol]
7 | 97 | 78 | – | O=C1c2cc(CN3CCC(F)CC3)c3ccccc3c2OCN1[C@H]1CCC[C@@H]1O [Example 79, 6-((4-fluoropiperidin-1-yl)methyl)-3-((1S,2S)-2-hydroxycyclopentyl)-2,3-dihydro-4H-naphtho[2,1-e][1,3]oxazin-4-one]
8 | 93 | 160 | – | Cc1c(Cc2ccc(Cl)nc2)cc2c(c1Cl)OCN(CC1CCCO1)C2=O (stereo not shown) [Example 87, 8-chloro-6-((6-chloropyridin-3-yl)methyl)-7-methyl-3-(tetrahydrofuran-2-ylmethyl)-2,3-dihydro-4H-1,3-benzoxazin-4-one]
9 | 95 | 8.5 | – | Cc1ccc(Cc2cc3c(c(C)c2C)OCN([C@H]2CCC[C@@H]2O)C3=O)cn1 [Example 11, 3-((1S,2S)-2-hydroxycyclopentyl)-7,8-dimethyl-6-((6-methylpyridin-3-yl)methyl)-2,3-dihydro-4H-1,3-benzoxazin-4-one]
10 | 105 | 22 | – | O=C1c2cc(CN3CC[S+]([O-])CC3)c3ccccc3c2OCN1[C@H]1CCC[C@@H]1O [Example 60, 3-((1S,2S)-2-hydroxycyclopentyl)-6-((1-oxidothiomorpholin-4-yl)methyl)-2,3-dihydro-4H-naphtho[2,1-e][1,3]oxazin-4-one]
11 | 91 | 3.6 | – | Cc1ccc(Cc2cc3c(c4ccccc24)OCN([C@H]2COCC[C@@H]2O)C3=O)cn1 [Example 133, 1,5-anhydro-2,4-dideoxy-2-(6-((6-methylpyridin-3-yl)methyl)-4-oxo-2H-naphtho[2,1-e][1,3]oxazin-3(4H)-yl)-L-threo-pentitol]
12 | 99 | 17 | – | Cc1c(Cc2ccc(Cl)nc2)cc2c(c1C)OCN([C@H]1COCC[C@@H]1O)C2=O (relative stereo) [Example 31, 1,5-anhydro-2-(6-((6-chloropyridin-3-yl)methyl)-7,8-dimethyl-4-oxo-2H-1,3-benzoxazin-3(4H)-yl)-2,4-dideoxy-threo-pentitol]
13 | 98 | 4.6 | – | Cc1c(Cc2ccc(-c3ccn(C)n3)cc2)cc2c(c1F)OCN([C@H]1CCC[C@@H]1O)C2=O [Example 9, 8-fluoro-3-((1S,2S)-2-hydroxycyclopentyl)-7-methyl-6-(4-(1-methyl-1H-pyrazol-3-yl)benzyl)-2,3-dihydro-4H-1,3-benzoxazin-4-one]
14 | 88 | 1.5 | – | Cc1c(Cc2ccc(-n3ccnc3)nc2)cc2c(c1Cl)OCN([C@H]1CCC[C@@H]1O)C2=O (relative stereo) [Example 39, 8-chloro-3-(trans-2-hydroxycyclopentyl)-6-((6-(1H-imidazol-1-yl)pyridin-3-yl)methyl)-7-methyl-2,3-dihydro-4H-1,3-benzoxazin-4-one]
15 | 105 | 6 | – | Cc1ccc(Cc2cc3c(c(F)c2C)OCN([C@H]2CCCC[C@@H]2O)C3=O)cn1 [Example 27, 8-fluoro-3-((1S,2S)-2-hydroxycyclohexyl)-7-methyl-6-((6-methylpyridin-3-yl)methyl)-2,3-dihydro-4H-1,3-benzoxazin-4-one]
16 | 102 | 20 | – | Cc1c(Cc2ccc(Cl)nc2)cc2c(c1F)OCN([C@H]1CCC[C@@H]1O)C2=O [Example 16, 6-((6-chloropyridin-3-yl)methyl)-8-fluoro-3-((1S,2S)-2-hydroxycyclopentyl)-7-methyl-2,3-dihydro-4H-1,3-benzoxazin-4-one]
17 | 124 | 2 | – | C=Cc1ccc(Cc2cc3c(c4ccccc24)OCN([C@H]2COCC[C@@H]2O)C3=O)cn1 [Example 42, 1,5-anhydro-2,4-dideoxy-2-(4-oxo-6-((6-vinylpyridin-3-yl)methyl)-2H-naphtho[2,1-e][1,3]oxazin-3(4H)-yl)-L-threo-pentitol]
18 | 108 | 37 | – | Cc1ccc(Cc2cc3c(c(F)c2C)OCN([C@H]2COCC[C@@H]2O)C3=O)cn1 [Example 32, 1,5-anhydro-2,4-dideoxy-2-(8-fluoro-7-methyl-6-((6-methylpyridin-3-yl)methyl)-4-oxo-2H-1,3-benzoxazin-3(4H)-yl)-L-threo-pentitol]
19 | – | 5.4 | 119 | Cc1ccc(Cc2cc3c(c(C)c2C)OCN([C@H]2CCC[C@@H]2O)C3=O)cn1 [Example 26, 3-((1S,2S)-2-hydroxycyclopentyl)-7,8-dimethyl-6-((6-methylpyridin-3-yl)methyl)-2,3-dihydro-4H-1,3-benzoxazin-4-one monohydrochloride]
20 | 98 | 1.6 | – | Cc1ccc(Cc2cc3c(c4ccccc24)OCN([C@H]2CCC[C@@H]2O)C3=O)cn1 [Example 40, 3-((1S,2S)-2-hydroxycyclopentyl)-6-((6-methylpyridin-3-yl)methyl)-2,3-dihydro-4H-naphtho[2,1-e][1,3]oxazin-4-one]
21 | 99 | 32 | – | Cn1cc(-c2ccc(Cc3ccc4c(c3)C(=O)N([C@H]3CCCC[C@@H]3O)CO4)cn2)cn1 (relative stereo) [Example 63, 3-(trans-2-hydroxycyclohexyl)-6-((6-(1-methyl-1H-pyrazol-4-yl)pyridin-3-yl)methyl)-2,3-dihydro-4H-1,3-benzoxazin-4-one]
22 | 101 | 9.7 | – | Cc1c(Cc2ccc(-n3cccn3)nc2)cc2c(c1Cl)OCN([C@H]1CCC[C@@H]1O)C2=O (relative stereo) [Example 51, 8-chloro-3-(trans-2-hydroxycyclopentyl)-7-methyl-6-((6-(1H-pyrazol-1-yl)pyridin-3-yl)methyl)-2,3-dihydro-4H-1,3-benzoxazin-4-one]
23 | 112 | 27 | – | COc1ccc(Cc2cc3c(c(C)c2C)OCN([C@H]2COCC[C@@H]2O)C3=O)cc1 (single isomer, unassigned) [Example 17, 1,5-anhydro-2,4-dideoxy-2-(6-(4-methoxybenzyl)-7,8-dimethyl-4-oxo-2H-1,3-benzoxazin-3(4H)-yl)-threo-pentitol (optical isomer)]
24 | 107 | 37 | – | COc1ccc(Cc2cc3c(c(F)c2C)OCN([C@H]2CCC[C@@H]2O)C3=O)cn1 [Example 18, 8-fluoro-3-((1S,2S)-2-hydroxycyclopentyl)-6-((6-methoxypyridin-3-yl)methyl)-7-methyl-2,3-dihydro-4H-1,3-benzoxazin-4-one]
25 | 106 | 15 | – | Cc1cc2c(cc1Cc1ccc(-n3cccn3)nc1)C(=O)N([C@H]1CCC[C@@H]1O)CO2 [Example 14, 3-((1S,2S)-2-hydroxycyclopentyl)-7-methyl-6-((6-(1H-pyrazol-1-yl)pyridin-3-yl)methyl)-2,3-dihydro-4H-1,3-benzoxazin-4-one]
